Experimental data taken from ChEMBL document CHEMBL5260810, “Inhibition of bromodomain-containing protein 9 for the prevention of epigenetically-defined drug resistance” (Bioorg Med Chem Lett, 2017).

How the values were obtained:
[1] = system: NUGC-4; experiment: Cytotoxicity against human NUGC-4 cells measured after 8 days; assay type: functional, cell-based; settings: NUGC-4, 192 h
[2] = molecular target: Bromodomain-containing protein 2 (Homo sapiens, UniProt P25440); experiment: Binding affinity to human partial length BRD2 bromodomain 1/2 isoform 1 (K71 to D455 residues) by BROMOscan assay
[3] = system: Granta-519; experiment: Cytotoxicity against human Granta-519 cells measured after 8 days; assay type: functional, cell-based; settings: Granta-519, 192 h
[4] = system: EOL1; experiment: Cytotoxicity against human EOL1 cells measured after 8 days; assay type: functional, cell-based; settings: EOL1, 192 h
[5] = molecular target: Cyclin-dependent kinase 2/cyclin A (Homo sapiens) (UniProt P24941+P20248+P78396); experiment: Inhibition of CDK2/cyclin A (unknown origin) at 1 uM relative to control; assay type: protein-complex assay
[6] = system: NCI-H1993; experiment: Cytotoxicity against human NCI-H1993 cells measured after 8 days; assay type: functional, cell-based; settings: NCI-H1993, 192 h
[7] = molecular target: Ribosomal protein S6 kinase alpha-2 (Homo sapiens) (UniProt Q15349); experiment: Inhibition of RSK3 (unknown origin) at 1 uM relative to control
[8] = system: HCC70; experiment: Cytotoxicity against human HCC70 cells measured after 8 days; assay type: functional, cell-based; settings: HCC70, 192 h
[9] = system: GP5d; experiment: Cytotoxicity against human GP5d cells measured after 8 days; assay type: functional, cell-based; settings: 192 h
[10] = system: U-698-M; experiment: Cytotoxicity against human U-698-M cells measured after 8 days; assay type: functional, cell-based; settings: 192 h
[11] = system: NCI-H1299; experiment: Cytotoxicity against human NCI-H1299 cells measured after 8 days; assay type: functional, cell-based; settings: NCI-H1299, 192 h
[12] = molecular target: Serine/threonine-protein kinase pim-1 (Homo sapiens) (UniProt P11309); experiment: Inhibition of PIM1 (unknown origin) at 1 uM relative to control
Serine/threonine-protein kinase pim-1 (Homo sapiens), sequence (P11309 whole entry, looked up, the tested form may be a part): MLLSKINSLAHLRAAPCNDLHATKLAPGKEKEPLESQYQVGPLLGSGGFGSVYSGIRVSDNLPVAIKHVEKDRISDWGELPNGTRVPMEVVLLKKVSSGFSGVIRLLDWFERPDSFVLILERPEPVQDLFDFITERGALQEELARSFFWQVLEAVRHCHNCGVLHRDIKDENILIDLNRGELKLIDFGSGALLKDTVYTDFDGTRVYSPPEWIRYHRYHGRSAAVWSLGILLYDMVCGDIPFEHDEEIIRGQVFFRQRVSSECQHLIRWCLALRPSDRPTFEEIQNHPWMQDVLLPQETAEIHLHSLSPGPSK

[13] = molecular target: Bromodomain adjacent to zinc finger domain protein 2B (Homo sapiens, UniProt Q9UIF8); experiment: Binding affinity to human partial length BAZ2B (S2054 to S2168 residues) expressed in bacterial expression system by BROMOscan assay
[14] = system: NCI-H2405; experiment: Cytotoxicity against human NCI-H2405 cells measured after 8 days; assay type: functional, cell-based; settings: NCI-H2405, 192 h
[15] = molecular target: Bromodomain-containing protein 3 (Homo sapiens, UniProt Q15059); experiment: Binding affinity to human partial length BRD3 bromodomain 1 (P24 to E144 residues) expressed in bacterial expression system by BROMOscan assay
Bromodomain-containing protein 3, sequence (Q15059 whole entry, the tested form may be a part): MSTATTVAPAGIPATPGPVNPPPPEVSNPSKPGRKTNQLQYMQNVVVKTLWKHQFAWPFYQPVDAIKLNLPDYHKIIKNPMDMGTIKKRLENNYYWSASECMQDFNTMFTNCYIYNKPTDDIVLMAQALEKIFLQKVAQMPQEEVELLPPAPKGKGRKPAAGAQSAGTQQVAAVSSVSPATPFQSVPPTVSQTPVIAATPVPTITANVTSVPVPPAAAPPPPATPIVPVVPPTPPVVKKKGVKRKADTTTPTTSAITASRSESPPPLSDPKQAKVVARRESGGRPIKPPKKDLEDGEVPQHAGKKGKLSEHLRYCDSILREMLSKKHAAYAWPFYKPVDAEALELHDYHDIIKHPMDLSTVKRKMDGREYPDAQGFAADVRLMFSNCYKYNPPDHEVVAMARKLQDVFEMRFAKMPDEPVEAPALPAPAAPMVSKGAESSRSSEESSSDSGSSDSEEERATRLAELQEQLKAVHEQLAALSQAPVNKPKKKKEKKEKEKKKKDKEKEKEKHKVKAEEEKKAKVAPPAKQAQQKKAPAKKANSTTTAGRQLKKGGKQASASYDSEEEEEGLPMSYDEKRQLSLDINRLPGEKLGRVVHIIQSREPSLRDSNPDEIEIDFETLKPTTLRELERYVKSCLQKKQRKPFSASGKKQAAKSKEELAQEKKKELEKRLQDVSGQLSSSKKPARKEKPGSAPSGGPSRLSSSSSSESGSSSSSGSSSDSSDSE

[16] = system: COLO-741; experiment: Cytotoxicity against human COLO-741 cells measured after 8 days; assay type: functional, cell-based; settings: COLO-741, 192 h
[17] = molecular target: Kappa-type opioid receptor (Homo sapiens) (UniProt P41145); experiment: Displacement of [3H]U69593 from human kappa receptor at 10 uM after 60 mins by scintillation counting analysis relative to control
Kappa-type opioid receptor (Homo sapiens), sequence (P41145 whole entry): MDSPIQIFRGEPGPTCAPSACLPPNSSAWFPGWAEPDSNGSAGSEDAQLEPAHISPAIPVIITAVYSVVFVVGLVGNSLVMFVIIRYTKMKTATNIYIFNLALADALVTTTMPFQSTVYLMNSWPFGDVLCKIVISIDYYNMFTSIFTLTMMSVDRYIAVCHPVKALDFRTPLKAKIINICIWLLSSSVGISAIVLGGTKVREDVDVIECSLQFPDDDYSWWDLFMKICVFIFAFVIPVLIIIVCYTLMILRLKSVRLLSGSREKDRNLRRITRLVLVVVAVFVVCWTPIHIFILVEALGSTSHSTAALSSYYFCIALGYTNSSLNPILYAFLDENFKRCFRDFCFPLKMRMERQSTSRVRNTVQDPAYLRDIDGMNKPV

[18] = system: NCI-H1975; experiment: Cytotoxicity against human NCI-H1975 cells measured after 8 days; assay type: functional, cell-based; settings: NCI-H1975, 192 h
[19] = Cytotoxicity against human NCE-G 111 cells measured after 8 days; assay type: functional, cell-based; settings: NCE-G 111, 192 h
[20] = molecular target: Dual specificity protein kinase CLK2 (Homo sapiens) (UniProt P49760); experiment: Inhibition of CLK2 (unknown origin) at 1 uM relative to control
Dual specificity protein kinase CLK2 (Homo sapiens), sequence (P49760 whole entry, looked up): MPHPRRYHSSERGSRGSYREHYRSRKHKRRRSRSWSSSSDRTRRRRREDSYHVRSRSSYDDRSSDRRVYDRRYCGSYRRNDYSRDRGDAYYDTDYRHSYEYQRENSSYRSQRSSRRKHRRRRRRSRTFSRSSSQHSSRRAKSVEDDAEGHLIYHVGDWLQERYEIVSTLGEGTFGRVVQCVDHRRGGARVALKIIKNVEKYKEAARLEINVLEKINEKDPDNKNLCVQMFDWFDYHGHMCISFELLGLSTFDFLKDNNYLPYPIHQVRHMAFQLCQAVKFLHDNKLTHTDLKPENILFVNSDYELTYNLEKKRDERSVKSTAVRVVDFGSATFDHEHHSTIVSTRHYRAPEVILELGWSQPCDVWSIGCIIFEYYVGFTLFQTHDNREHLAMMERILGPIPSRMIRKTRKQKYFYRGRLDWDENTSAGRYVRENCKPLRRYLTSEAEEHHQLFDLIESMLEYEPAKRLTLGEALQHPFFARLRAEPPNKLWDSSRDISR

[21] = system: WSUDLCL2; experiment: Cytotoxicity against human WSUDLCL2 cells measured after 8 days; assay type: functional, cell-based; settings: WSUDLCL2, 192 h
[22] = molecular target: Bromodomain testis-specific protein (Homo sapiens, UniProt Q58F21); experiment: Binding affinity to BRDT bromodomain 1/2 (unknown origin) by BROMOscan assay
[23] = molecular target: CREB-binding protein (Homo sapiens, UniProt Q92793); experiment: Binding affinity to human partial length CREBBP (R1081 to G1197 residues) expressed in bacterial expression system by BROMOscan assay
CREB-binding protein, sequence (Q92793 whole entry, the tested form may be a part): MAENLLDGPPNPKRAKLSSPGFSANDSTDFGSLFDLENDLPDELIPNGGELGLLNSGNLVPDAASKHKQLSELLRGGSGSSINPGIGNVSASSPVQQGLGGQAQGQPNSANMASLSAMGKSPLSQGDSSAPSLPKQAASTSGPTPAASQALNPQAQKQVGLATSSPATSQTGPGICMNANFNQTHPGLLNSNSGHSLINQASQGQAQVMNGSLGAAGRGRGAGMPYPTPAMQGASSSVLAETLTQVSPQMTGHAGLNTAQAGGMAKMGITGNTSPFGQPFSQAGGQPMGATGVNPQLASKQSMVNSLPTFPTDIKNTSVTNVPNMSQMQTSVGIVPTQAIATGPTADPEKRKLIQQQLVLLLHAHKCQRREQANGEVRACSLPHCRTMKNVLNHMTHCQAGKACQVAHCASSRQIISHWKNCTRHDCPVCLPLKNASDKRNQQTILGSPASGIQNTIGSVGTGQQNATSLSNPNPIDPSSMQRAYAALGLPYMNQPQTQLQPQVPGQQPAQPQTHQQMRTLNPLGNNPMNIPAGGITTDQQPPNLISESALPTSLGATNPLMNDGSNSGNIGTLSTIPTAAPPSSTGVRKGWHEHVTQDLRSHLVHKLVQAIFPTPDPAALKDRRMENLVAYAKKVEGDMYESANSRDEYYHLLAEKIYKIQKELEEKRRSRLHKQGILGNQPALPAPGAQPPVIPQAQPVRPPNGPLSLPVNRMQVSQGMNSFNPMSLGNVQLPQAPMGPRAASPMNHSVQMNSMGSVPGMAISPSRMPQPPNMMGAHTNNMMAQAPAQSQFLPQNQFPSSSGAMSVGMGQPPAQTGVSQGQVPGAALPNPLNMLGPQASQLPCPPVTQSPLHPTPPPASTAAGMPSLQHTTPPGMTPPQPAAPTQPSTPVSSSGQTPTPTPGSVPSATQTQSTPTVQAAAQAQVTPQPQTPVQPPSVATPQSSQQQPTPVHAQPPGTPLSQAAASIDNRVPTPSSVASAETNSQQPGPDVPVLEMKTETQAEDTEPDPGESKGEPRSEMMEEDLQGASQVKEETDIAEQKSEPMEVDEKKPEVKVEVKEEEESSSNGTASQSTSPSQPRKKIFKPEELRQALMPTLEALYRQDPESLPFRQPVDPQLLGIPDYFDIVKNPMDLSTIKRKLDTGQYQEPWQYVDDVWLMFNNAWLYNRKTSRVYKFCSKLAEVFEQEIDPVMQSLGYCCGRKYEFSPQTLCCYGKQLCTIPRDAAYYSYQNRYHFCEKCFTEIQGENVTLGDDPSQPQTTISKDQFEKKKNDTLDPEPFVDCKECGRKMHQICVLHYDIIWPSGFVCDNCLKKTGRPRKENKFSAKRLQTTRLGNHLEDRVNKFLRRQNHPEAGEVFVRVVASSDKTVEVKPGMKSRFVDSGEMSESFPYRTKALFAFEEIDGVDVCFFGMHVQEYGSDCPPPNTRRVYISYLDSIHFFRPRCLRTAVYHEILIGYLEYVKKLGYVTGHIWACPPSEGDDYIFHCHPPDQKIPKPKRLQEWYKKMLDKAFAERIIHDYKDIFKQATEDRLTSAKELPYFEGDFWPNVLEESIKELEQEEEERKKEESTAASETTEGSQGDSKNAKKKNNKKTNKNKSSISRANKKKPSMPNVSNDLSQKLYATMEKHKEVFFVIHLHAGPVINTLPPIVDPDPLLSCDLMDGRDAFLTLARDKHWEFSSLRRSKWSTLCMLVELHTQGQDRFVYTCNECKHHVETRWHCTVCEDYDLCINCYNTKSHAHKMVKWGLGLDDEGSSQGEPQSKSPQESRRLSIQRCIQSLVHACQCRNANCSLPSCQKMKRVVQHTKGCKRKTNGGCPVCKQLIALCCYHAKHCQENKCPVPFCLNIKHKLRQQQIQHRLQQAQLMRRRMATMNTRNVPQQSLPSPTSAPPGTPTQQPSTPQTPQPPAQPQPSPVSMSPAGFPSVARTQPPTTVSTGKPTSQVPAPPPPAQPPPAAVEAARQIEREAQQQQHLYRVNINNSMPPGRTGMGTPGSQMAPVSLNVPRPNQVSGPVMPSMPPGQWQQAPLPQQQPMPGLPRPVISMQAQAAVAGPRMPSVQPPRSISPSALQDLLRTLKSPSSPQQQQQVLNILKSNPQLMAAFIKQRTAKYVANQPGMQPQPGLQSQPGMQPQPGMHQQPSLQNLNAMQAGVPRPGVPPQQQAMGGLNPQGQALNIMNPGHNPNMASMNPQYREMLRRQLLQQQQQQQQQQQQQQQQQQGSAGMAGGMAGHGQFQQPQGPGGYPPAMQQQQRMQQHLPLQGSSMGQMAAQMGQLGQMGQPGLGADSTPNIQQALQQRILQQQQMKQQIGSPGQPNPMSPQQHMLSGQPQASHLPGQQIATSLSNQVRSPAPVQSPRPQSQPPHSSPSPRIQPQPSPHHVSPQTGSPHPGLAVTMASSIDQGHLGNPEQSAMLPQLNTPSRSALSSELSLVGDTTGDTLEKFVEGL

[24] = system: HT-29; experiment: Cytotoxicity against human HT-29 cells measured after 8 days; assay type: functional, cell-based; settings: HT-29, 192 h
[25] = system: NCI-H226; experiment: Cytotoxicity against human NCI-H226 cells measured after 8 days; assay type: functional, cell-based; settings: NCI-H226, 192 h
[26] = molecular target: T1, E3 ubiquitin-protein ligase TRIM33 (Homo sapiens, UniProt Q9UPN9); experiment: Binding affinity to human partial length TRIM33 (D882 to A1087 residues) expressed in bacterial expression system by BROMOscan assay
T1 sequence (Q9UPN9 whole entry): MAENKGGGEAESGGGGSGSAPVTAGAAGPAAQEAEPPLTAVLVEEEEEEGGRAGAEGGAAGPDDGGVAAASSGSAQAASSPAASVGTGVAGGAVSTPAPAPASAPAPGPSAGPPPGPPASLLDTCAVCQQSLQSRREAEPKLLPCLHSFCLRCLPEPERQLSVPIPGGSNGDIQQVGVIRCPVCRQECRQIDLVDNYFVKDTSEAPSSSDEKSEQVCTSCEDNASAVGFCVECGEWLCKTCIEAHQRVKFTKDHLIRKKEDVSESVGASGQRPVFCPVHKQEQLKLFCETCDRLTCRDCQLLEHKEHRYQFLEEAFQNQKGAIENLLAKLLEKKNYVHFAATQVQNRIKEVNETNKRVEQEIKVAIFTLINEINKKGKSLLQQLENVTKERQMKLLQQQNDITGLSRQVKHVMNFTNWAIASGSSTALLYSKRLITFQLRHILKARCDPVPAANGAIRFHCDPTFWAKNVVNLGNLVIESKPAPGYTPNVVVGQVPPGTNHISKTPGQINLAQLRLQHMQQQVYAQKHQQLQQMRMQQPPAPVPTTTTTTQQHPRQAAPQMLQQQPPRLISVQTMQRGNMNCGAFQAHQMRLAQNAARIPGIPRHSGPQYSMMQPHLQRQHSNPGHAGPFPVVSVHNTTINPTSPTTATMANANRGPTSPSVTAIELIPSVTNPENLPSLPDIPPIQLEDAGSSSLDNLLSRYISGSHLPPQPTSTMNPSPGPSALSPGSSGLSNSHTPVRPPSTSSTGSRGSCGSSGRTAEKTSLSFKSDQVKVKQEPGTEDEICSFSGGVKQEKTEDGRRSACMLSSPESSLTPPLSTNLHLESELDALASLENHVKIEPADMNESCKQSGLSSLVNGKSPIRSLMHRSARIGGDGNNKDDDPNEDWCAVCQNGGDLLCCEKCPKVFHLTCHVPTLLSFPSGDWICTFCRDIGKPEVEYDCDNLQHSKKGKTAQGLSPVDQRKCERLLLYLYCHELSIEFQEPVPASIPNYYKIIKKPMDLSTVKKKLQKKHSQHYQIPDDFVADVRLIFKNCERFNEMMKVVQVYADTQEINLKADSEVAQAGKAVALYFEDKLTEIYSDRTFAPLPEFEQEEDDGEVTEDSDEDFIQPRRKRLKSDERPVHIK

[27] = Cytotoxicity against human NCI-H1339 cells measured after 8 days; assay type: functional, cell-based; settings: NCI-H1339, 192 h
[28] = molecular target: Histamine H1 receptor (Homo sapiens) (UniProt P35367); experiment: Displacement of [3H]pyrilamine from human recombinant histamine H1 receptor at 10 uM after 60 mins by scintillation counting analysis relative to control
Histamine H1 receptor (Homo sapiens), sequence (P35367 whole entry): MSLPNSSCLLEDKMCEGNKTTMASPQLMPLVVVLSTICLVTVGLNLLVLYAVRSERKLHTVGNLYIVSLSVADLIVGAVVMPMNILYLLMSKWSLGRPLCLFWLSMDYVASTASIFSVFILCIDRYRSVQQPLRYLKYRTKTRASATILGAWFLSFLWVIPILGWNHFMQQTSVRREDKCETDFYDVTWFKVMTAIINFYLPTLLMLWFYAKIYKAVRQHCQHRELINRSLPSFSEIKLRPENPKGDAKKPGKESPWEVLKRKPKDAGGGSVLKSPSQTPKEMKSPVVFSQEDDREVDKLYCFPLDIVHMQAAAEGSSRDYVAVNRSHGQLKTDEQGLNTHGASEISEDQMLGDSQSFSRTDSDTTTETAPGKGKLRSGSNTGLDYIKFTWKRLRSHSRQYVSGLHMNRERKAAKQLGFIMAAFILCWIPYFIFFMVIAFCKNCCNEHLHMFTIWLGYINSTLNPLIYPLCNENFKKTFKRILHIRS

[29] = system: HOP-92; experiment: Cytotoxicity against human HOP-92 cells measured after 8 days; assay type: functional, cell-based; settings: HOP-92, 192 h

| SMILES | IC50 [1] [µM] | Kd [2] [µM] | IC50 [3] [µM] | IC50 [4] [µM] | inhibition [5] [%] | IC50 [6] [µM] | inhibition [7] [%] | IC50 [8] [µM] | IC50 [9] [µM] | IC50 [10] [µM] | IC50 [11] [µM] | inhibition [12] [%] | Kd [13] [µM] | IC50 [14] [µM] | Kd [15] [µM] | IC50 [16] [µM] | Activity [17] [%] | Kd [22] [µM] | Kd [23] [µM] | Kd [26] [µM] | further results |
| --- | --- | --- | --- | --- | --- | --- | --- | --- | --- | --- | --- | --- | --- | --- | --- | --- | --- | --- | --- | --- | --- |
| C/C=C/Cn1cc(-c2ccc(C(C)(C)O)cc2OC)c2cc[nH]c2c1=O | 20 | 2.8 | 20 | 3.3 | 1 | 20 | 5.5 | 20 | 20 | 20 | 20 | 0.5 | > 10 | 20 | 3.2 | 20 | -1 | 1.2 | 3.5 | > 10 | IC50 [18]: 20 µM; IC50 [19]: 20 µM; inhibition [20]: 8%; IC50 [21]: 7.32 µM; IC50 [24]: 20 µM; IC50 [25]: 20 µM; IC50 [27]: 20 µM; Activity [28]: 1%; IC50 [29]: 20 µM |
| C/C=C/Cn1cc(-c2cc(OC)c(C(C)(C)O)cc2OC)c2cc(C)[nH]c2c1=O | – | 1.7 | – | – | – | – | – | – | – | – | – | – | > 10 | – | 9.2 | – | – | 6.2 | > 10 | > 10 | – |
| C/C=C/Cn1cc(-c2ccc(C(=O)N3CCOCC3)cc2)c2cc[nH]c2c1=O | 20 | 2.3 | 20 | 0.95 | 1.6 | 20 | -4.3 | 20 | 20 | 20 | 20 | -3.4 | > 10 | 20 | 6.3 | 20 | 6 | 2.9 | > 10 | > 10 | IC50 [18]: 20 µM; IC50 [19]: 20 µM; inhibition [20]: 2%; IC50 [21]: 8.31 µM; IC50 [24]: 20 µM; IC50 [25]: 20 µM; IC50 [27]: 20 µM; Activity [28]: 0%; IC50 [29]: 20 µM |
| C/C=C/Cn1cc(-c2cc(OC)c(C(=O)N3CCOCC3)cc2OC)c2cc(C)[nH]c2c1=O | 2 | > 10 | 2 | 1.34 | 0 | 2 | 3.5 | 2 | 2 | 2 | 2 | 2 | > 10 | 2 | > 10 | 2 | 8 | > 10 | > 10 | > 5 | IC50 [18]: 2 µM; IC50 [19]: 2 µM; inhibition [20]: 7.5%; IC50 [21]: 2 µM; IC50 [24]: 2 µM; IC50 [25]: 2 µM; IC50 [27]: 2 µM; Activity [28]: 1%; IC50 [29]: 2 µM |
